pIC50: −log10 of the molar value.
Columns and labels:
recombinant human WRN = target: T1, recombinant human WRN (Homo sapiens, UniProt Q14191); experiment: Inhibition of WRN enzyme activity (ATPase), ADP-Glo Kinase Assay; assay type: biochemical; details: WRN protein 5 nM, Flap 0.1 nM, ATP 30 µM; read-out: IC50
T1 construct: purchased BPS 101264
Outline: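 ATPase activity was measured by ADP-Glo luminescence after a 10-min room-temperature reaction with 30 µM ATP and 0.1 nM Flap26 oligonucleotide substrate. The 5 nM WRN had first been exposed to compound (0.004–1000 nM) for 15 min in pH 7.5 Tris buffer with 2 mM MgCl2. IC50 values came from log-concentration regression against the DMSO control.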

RL95-2 cells = experiment: Inhibition of RL95-2 cell proliferation (CellTiter-Glo); assay type: cell-based; details: Homo sapiens; RL95-2 cells (MSI-H), 120 hours
Protocol: (§1) The following method was used to determine the effect of the compounds of the present disclosure on RL95-2 cell proliferation. RL95-2 cells (MSI-H cells) were purchased from Cell Resource Center of Shanghai Institutes for Biological Sciences, Chinese Academy of Sciences, and cultured in DMEM/F12 medium (Gibco, catalog No. A4192001) containing 10% fetal bovine serum, 100 U penicillin, and 100 µg/mL streptomycin. Cell viability was determined by CellTiter-Glo® Luminescent Cell Viability Assay kit (Promega, catalog No. G7573).
(§2) The experiment was performed according to the steps of the kit manual, which is briefly described as follows: test compounds were first dissolved in DMSO to prepare 10 mM stock solutions, and then diluted with medium to prepare test samples, with final compound concentrations ranging from 10000 nM to 1.52 nM. Cells in logarithmic growth phase were seeded into 96-well cell culture plates at a density of 500 cells per well and cultured overnight at 37 °C in a 5% CO2 incubator, and then test compounds were added and cultivation continued for 120 hours. After the cultivation was completed, 50 µL of CellTiter-Glo detection reagent was added to each well, shaken for 5 minutes, and then left to stand for 10 minutes. Luminescence values of each well were read on a microplate reader using Luminescence mode. The percentage inhibition at each concentration point was calculated by comparison with the control group (0.1% DMSO), and then IC50 values for the compounds for inhibition of cell proliferation were obtained using nonlinear regression analysis of compound concentration logarithm versus inhibition rate in GraphPad Prism 9 software, as shown in Table 3.
The IC50 value results of the compounds of the present disclosure are represented by A, wherein "A" indicates 1 nM < IC50 ≤ 100 nM. Table 3 IC50 data for inhibition of RL95-2 cell proliferation by the compounds of the present disclosure

SW48 cells = experiment: Inhibition of SW48 cell proliferation (CellTiter-Glo); assay type: cell-based; details: Homo sapiens; SW48 cells (MSI-H), 120 hours
Protocol: as §1, with “SW48” for “RL95-2”, “American ATCC cell bank” for “Cell Resource Center of Shanghai Institutes for Biological Sciences, Chinese Academy of Sciences,”, “Leibovitz's L-15” for “DMEM/F12”, “11415064)” for “A4192001)”
as §2, with “in an air” for “in a 5% CO2”, “incubator,” for “incubator, and”, “completed, 40” for “completed, 50”, “Table 2.” for “Table 3.”
The IC50 value results of the compounds of the present disclosure are represented by A, wherein "A" indicates 1 nM < IC50 ≤ 100 nM. Table 2 IC50 data for inhibition of SW48 cell proliferation by the compounds of the present disclosure

Measured: pIC50

T1 sequence (Q14191 whole entry): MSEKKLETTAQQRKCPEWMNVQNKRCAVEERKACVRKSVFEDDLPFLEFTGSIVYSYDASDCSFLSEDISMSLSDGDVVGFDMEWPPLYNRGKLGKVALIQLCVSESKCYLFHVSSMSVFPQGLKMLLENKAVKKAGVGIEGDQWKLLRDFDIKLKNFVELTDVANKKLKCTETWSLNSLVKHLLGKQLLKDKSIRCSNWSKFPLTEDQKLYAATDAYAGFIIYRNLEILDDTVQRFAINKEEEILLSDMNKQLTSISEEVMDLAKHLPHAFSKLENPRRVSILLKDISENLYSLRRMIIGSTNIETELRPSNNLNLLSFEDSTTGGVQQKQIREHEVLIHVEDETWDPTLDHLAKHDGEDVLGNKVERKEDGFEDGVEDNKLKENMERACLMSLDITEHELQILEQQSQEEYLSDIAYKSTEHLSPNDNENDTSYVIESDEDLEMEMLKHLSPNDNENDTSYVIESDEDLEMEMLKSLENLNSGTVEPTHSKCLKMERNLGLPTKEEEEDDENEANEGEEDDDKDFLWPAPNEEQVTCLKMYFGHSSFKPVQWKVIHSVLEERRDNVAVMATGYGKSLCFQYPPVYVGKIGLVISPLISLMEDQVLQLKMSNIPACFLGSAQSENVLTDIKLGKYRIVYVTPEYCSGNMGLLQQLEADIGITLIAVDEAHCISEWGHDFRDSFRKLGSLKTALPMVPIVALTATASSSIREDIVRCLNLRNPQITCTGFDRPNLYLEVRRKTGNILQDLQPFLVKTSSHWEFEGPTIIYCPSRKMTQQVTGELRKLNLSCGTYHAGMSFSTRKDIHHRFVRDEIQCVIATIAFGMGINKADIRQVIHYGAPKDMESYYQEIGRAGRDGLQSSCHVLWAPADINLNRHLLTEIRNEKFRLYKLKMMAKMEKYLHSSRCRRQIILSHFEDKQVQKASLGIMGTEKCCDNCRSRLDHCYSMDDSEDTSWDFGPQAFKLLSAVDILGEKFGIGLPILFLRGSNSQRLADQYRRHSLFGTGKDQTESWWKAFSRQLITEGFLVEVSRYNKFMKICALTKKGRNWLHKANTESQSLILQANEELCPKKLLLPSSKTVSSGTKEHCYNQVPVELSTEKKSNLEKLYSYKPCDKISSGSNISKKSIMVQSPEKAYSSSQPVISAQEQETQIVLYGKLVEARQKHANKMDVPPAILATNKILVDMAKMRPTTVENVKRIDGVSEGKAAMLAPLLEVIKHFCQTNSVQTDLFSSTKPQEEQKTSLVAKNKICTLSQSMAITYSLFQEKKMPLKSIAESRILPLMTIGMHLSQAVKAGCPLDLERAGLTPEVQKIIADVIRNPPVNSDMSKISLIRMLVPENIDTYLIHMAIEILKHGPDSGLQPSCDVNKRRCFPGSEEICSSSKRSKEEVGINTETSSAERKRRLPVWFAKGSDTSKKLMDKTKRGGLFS

CCc1c(N2CCN(C(=O)c3ncnc(C)c3O)CC2)c(=O)n2nc(-c3ccc4c(c3)COC4)nc2n1CC(=O)Nc1ccc(C(F)(F)F)cc1Cl [Example 129, N-(2-chloro-4-(trifluoromethyl)phenyl)-2-(2-(1,3-dihydroisobenzofuran-5-yl)-5-ethyl-6-(4-(5-hydroxy-6-methylpyrimidine-4-carbonyl)piperazin-1-yl)-7-oxo-[1,2,4]triazolo[1,5-a]pyrimidin-4(7 H)-yl)acetamide]
7.00 to 9.00: all assays above

CCc1c(N2CCN(C(=O)c3ncnc(C)c3O)CC2)c(=O)n2nc(-c3ccc4[nH]ccc4c3)nc2n1CC(=O)Nc1ccc(C(F)(F)F)cc1Cl [Example 102, N-(2-chloro-4-(trifluoromethyl)phenyl)-2-(5-ethyl-6-(4-(5-hydroxy-6-methylpyrimidine-4-carbonyl)piperazin-1-yl)-2-(1H-indol-5-yl)-7-oxo-[1,2,4]triazolo[1,5-a]pyrimidin-4(7H)-yl)acetamide]
7.00 to 9.00: all assays above

CCc1c(N2CCN(C(=O)c3ncnc(C)c3O)CC2)c(=O)n2nc(-c3cc4ccncc4s3)nc2n1CC(=O)Nc1ccc(C(F)(F)F)cc1Cl [Example 132, N-(2-chloro-4-(trifluoromethyl)phenyl)-2-(5-ethyl-6-(4-(5-hydroxy-6-methylpyrimidine-4-carbonyl)piperazin-1-yl)-7-oxo-2-(thieno[2,3-c]pyridin-2-yl)-[1,2,4]triazolo[1,5-a]pyrimidin-4(7H)-yl)a cetamide]
7.00 to 9.00: all assays above

CCc1c(N2CCN(C(=O)c3ncnc(C)c3O)CC2)c(=O)n2nc(-c3ccc4n[nH]cc4c3)nc2n1CC(=O)Nc1ccc(C(F)(F)F)cc1Cl [Example 112, N-(2-chloro-4-(trifluoromethyl)phenyl)-2-(5-ethyl-6-(4-(5-hydroxy-6-methylpyrimidine-4-carbonyl)piperazin-1-yl)-2-(1H-indazol-5-yl)-7-oxo-[1,2,4]triazolo[1,5-a]pyrimidin-4(7H)-yl)acetamide]
7.00 to 9.00: all assays above

CCc1c(N2CCN(C(=O)c3ncnc(C)c3O)CC2)c(=O)n2nc(-c3ccc4nc(N)oc4c3)nc2n1CC(=O)Nc1ccc(C(F)(F)F)cc1Cl [Example 140, 2-(2-(2-aminobenzo[d]oxazol-6-yl)-5-ethyl-6-(4-(5-hydroxy-6-methylpyrimidine-4-carbonyl)piperazin-1-yl)-7-oxo-[1,2,4]triazolo[1,5-a]pyrimidin-4(7H)-yl)-N-(2-chloro-4-(trifluoromethyl)phenyl)acetamide]
7.00 to 9.00: all assays above

CCc1c(N2CCN(C(=O)c3ncnc(C)c3O)CC2)c(=O)n2nc(-c3cnc4c(c3)CCO4)nc2n1CC(=O)Nc1ccc(C(F)(F)F)cc1Cl [Example 162, N-(2-chloro-4-(trifluoromethyl)phenyl)-2-(2-(2,3-dihydrofuro[2,3-b]pyridin-5-yl)-5-ethyl-6-(4-(5-hydroxy-6-methylpyrimidine-4-carbonyl)piperazin-1-yl)-7-oxo-[1,2,4]triazolo[1,5-a]pyrimidin-4 (7H)-yl)acetamide]
7.00 to 9.00: all assays above

CCc1c(N2CCN(C(=O)c3ncnc(C)c3O)CC2)c(=O)n2nc(-c3ccc4c(c3)CCCO4)nc2n1CC(=O)Nc1ccc(C(F)(F)F)cc1Cl [Example 130, N-(2-chloro-4-(trifluoromethyl)phenyl)-2-(2-(chroman-6-yl)-5-ethyl-6-(4-(5-hydroxy-6-methylpyrimidine-4-carbonyl)piperazin-1-yl)-7-oxo-[1,2,4]triazolo[1,5-a]pyrimidin-4(7H)-yl)acetamide]
7.00 to 9.00: all assays above

CCc1c(N2CCN(C(=O)c3ncnc(C)c3O)CC2)c(=O)n2nc(-c3ccc4c(c3)CCO4)nc2n1CC(=O)Nc1ccc(S(F)(F)(F)(F)F)cc1 [Example 86, 2-(2-(2,3-dihydrobenzofuran-5-yl)-5-ethyl-6-(4-(5-hydroxy-6-methylpyrimidine-4-carbonyl)piperazin-1-yl)-7-oxo-[1,2,4]triazolo[1,5-a]pyrimidin-4(7H)-yl)-N-(4-(pentafluoro-λ^6-sulfaneyl)phenyl)acetamide]
7.00 to 9.00: all assays above

CCc1c(N2CCN(C(=O)c3ncccc3O)CC2)c(=O)n2nc(C3=CC4CC(C)(O)CC4C3)nc2n1CC(=O)Nc1ccc(C(F)(F)F)cc1Cl (stereo not drawn) [Example 164, N-(2-chloro-4-(trifluoromethyl)phenyl)-2-(5-ethyl-2-(5-hydroxy-5-methyl-1,3a,4,5,6,6a-hexahydropentalen-2-yl)-6-(4-(3-hydroxypicolinoyl)piperazin-1-yl)-7-oxo-[1,2,4]triazolo[1,5-a]pyrimidin-4(7H)-yl)acetamide]
7.00 to 9.00: all assays above

CCc1c(N2CCN(C(=O)c3ncnc(C)c3O)CC2)c(=O)n2nc(C3=CC4CCC3C4)nc2n1CC(=O)Nc1ccc(S(F)(F)(F)(F)F)cc1 (stereo not drawn) [Example 118, 2-(2-(bicyclo[2.2.1]hept-2-en-2-yl)-5-ethyl-6-(4-(5-hydroxy-6-methylpyrimidine-4-carbonyl)piperazin-1-yl)-7-oxo-[1,2,4]triazolo[1,5-a]pyrimidin-4(7H)-yl)-N-(4-(pentafluoro-λ^6-sulfaneyl)phenyl)acetamide]
7.00 to 9.00: all assays above

CCc1c(N2CCN(C(=O)c3ncccc3O)CC2)c(=O)n2nc(C3=CC4CC(=O)CC4C3)nc2n1CC(=O)Nc1ccc(C(F)(F)F)cc1Cl (stereo not drawn) [Example 22, N-(2-chloro-4-(trifluoromethyl)phenyl)-2-(5-ethyl-6-(4-(3-hydroxypicolinoyl)piperazin-1-yl)-7-oxo-2-(5-oxo-1,3a,4,5,6,6a-hexahydropentalen-2-yl)-[1,2,4]triazolo[1,5-a]pyrimidin-4(7H)-yl)acet amide]
7.00 to 9.00: all assays above

[2H]C([2H])([2H])n1ccc2cc(-c3nc4n(CC(=O)Nc5ccc(C(F)(F)F)cc5Cl)c(CC)c(N5CCN(C(=O)c6ncnc(C)c6O)CC5)c(=O)n4n3)ccc21 [Example 185, N-(2-chloro-4-(trifluoromethyl)phenyl)-2-(5-ethyl-6-(4-(5-hydroxy-6-methylpyrimidine-4-carbonyl)piperazin-1-yl)-2-(1-(methyl-d3)-1H-indol-5-yl)-7-oxo-[1,2,4]triazolo[1,5-a]pyrimidin-4(7H)-yl)acetamide]
7.00 to 9.00: all assays above

CCc1c(N2CCN(C(=O)c3ncnc(C)c3O)CC2)c(=O)n2nc(C3=CCCCCC3)nc2n1CC(=O)Nc1ccc(C(F)(F)F)cc1C [Example 47, 2-(2-(cyclohept-1-en-1-yl)-5-ethyl-6-(4-(5-hydroxy-6-methylpyrimidine-4-carbonyl)piperazin-1-yl)-7-oxo-[1,2,4]triazolo[1,5-a]pyrimidin-4(7H)-yl)-N-(2-methyl-4-(trifluoromethyl)phenyl) acetamide]
7.00 to 9.00: all assays above

— patent EP4800015A1, “AZABICYCLO DERIVATIVE AND PREPARATION METHOD THEREFOR, AND USE” (Zhejiang Hisun Pharmaceutical Co., Ltd., priority 2023, dated 2025)
